Literature values as cited in US10976310B2, “Ligand identification by co-fractionation” (MAX-PLANCK-GESELLSCHAFT ZUR FÖRDERUNG DER WISSENSCHAFTEN …, priority 2016, dated 2021).

Molecular target: T1, PYR1 receptor (Arabidopsis thaliana, UniProt O49686)
T1 sequence (O49686 1-191): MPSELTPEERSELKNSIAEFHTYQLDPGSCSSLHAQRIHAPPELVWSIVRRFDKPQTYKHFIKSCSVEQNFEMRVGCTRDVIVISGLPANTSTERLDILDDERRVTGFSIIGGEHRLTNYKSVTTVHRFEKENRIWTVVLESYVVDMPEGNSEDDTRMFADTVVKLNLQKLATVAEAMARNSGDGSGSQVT
Details: Dupeux et al. (2011); read-out: Kd of binding to PYR1; cited from earlier work

SMILES: CC1=CC(=O)CC(C)(C)[C@@]1(O)/C=C/C(C)=C\C(=O)O [abscisic acid]
- Kd: 97 µM
